Experimental data from patent US20150105252A1, “SUBSTITUTED PYRAZOLES AS HERBICIDES” (E I DU PONT DE NEMOURS AND COMPANY, priority 2013, published 2015).

Columns and labels:
fall panicum = assay: Test F postemergence; type: in vivo, Panicum dichotomiflorum; details: scale 0 to 100
Source text: (§1) Seeds of plant species selected from corn (Zea mays), soybean (Glycine max), velvetleaf (Abutilon theophrasti), lambsquarters (Chenopodium album), wild poinsettia (Euphorbia heterophylla), pigweed, palmer (palmer pigweed, Amaranthus palmeri), common waterhemp (Amaranthus rudis), surinam grass (Brachiaria decumbens), large crabgrass (Digitaria sanguinalis), crabgrass, Brazil (Brazilian crabgrass, Digitaria horizontalis), fall panicum (Panicum dichotomiflorum), giant foxtail (Setaria faberii), green foxtail (Setaria viridis), goosegrass (Eleusine indica), johnsongrass (Sorghum halepense), common ragweed (Ambrosia elation), barnyardgrass (Echinochloa crus-galli), southern sandbur (Cenchrus echinatus), arrowleaf sida (Sida rhombifolia), Italian ryegrass (Lolium multiflorum), dayflower, VA (Virginia (VA) dayflower, Commelina virginica), field bindweed (Convolvulus arvensis), cocklebur (common cocklebur, Xanthium strumarium), morningglory (Ipomoea coccinea), nightshade (eastern black nightshade, Solanum ptycanthum), kochia (Kochia scoparia), yellow nutsedge (Cyperus esculentus), and hairy beggarticks (Bidens pilosa), were planted into a silt loam soil and treated preemergence with test chemicals formulated in a non-phytotoxic solvent mixture which included a surfactant.
(§2) At the same time, plants from these crop and weed species and also horseweed (Canada horseweed, Conyza canadensis), smartweed (ladysthumb smartweed, Polygonum persicaria), waterhemp_RES1, (ALS & Triazine resistant common waterhemp, Amaranthus rudis), and waterhemp_RES2, (ALS & HPPD resistant common waterhemp, Amaranthus rudis) were treated with postemergence applications of test chemicals formulated in the same manner. Plants ranged in height from 2 to 18 cm for postemergence treatments (1- to 4-leaf stage). Treated plants and controls were maintained in a greenhouse for 14 to 21 days, after which time all species were compared to controls and visually evaluated. Plant response ratings, summarized in Table F, are based on a scale of 0 to 100 where 0 is no effect and 100 is complete control. A dash (-) response means no test result.

dayflower, VA = assay: Test E preemergence; type: in vivo, Commelina virginica; details: 21 days, scale 0 to 100
Source text: (§3) Seeds of plant species selected from bermudagrass (Cynodon dactylon), Surinam grass (Brachiaria decumbens), crabgrass, large (large crabgrass, Digitaria sanguinalis), crabgrass, naked (naked crabgrass, Digitaria nuda), foxtail, green (green foxtail, Setaria viridis), johnsongrass (Sorghum halepense), kochia (Kochia scoparia), morningglory (pitted morningglory, Ipomoea lacunosa), nutsedge, purple (purple nutsedge, Cyperus rotundus), ragweed (common ragweed, Ambrosia elation), mustard, black (black mustard, Brassica nigra), guineagrass (Panicum maximum), dallisgrass (Paspalum dilatatum), barnyardgrass (Echinochloa crus-galli), sandbur (southern sandbur, Cenchrus echinatus), sowthistle (common sowthistle, Sonchus oleraceous), ryegrass, Italian (Italian ryegrass, Lolium multiflorum), signalgrass (broadleaf signalgrass, Brachiaria platyphylla), dayflower, VA (Virginia (VA) dayflower, Commelina virginica), bluegrass (annual bluegrass, Poa annua), quackgrass (Elytrigia repens), mallow (common mallow, Malva sylvestris), buckwheat, wild (wild buckwheat, Polygonum convolvulus), leafy spurge (Euphorbia esula), common chickweed (Stellaria media), wild poinsettia (Euphorbia heterophylla), pigweed, palmer (palmer pigweed, Amaranthus palmeri), and pigweed (redroot pigweed, Amaranthus retroflexus) were planted into a blend of loam soil and sand and treated preemergence with test chemicals formulated in a non-phytotoxic solvent mixture which included a surfactant.
(§4) Treated plants and controls were maintained in a greenhouse for 21 days, after which time all species were compared to controls and visually evaluated. Plant response ratings, summarized in Table E, are based on a scale of 0 to 100 where 0 is no effect and 100 is complete control. A dash (-) response means no test result.

pigweed, palmer = assay: Test F postemergence; type: in vivo, Amaranthus palmeri; details: scale 0 to 100
Summary of the method: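 Visual injury was scored from 0 (none) to 100 (complete control) relative to untreated controls after 14–21 days in a greenhouse. Before that, formulated compound (solvent plus surfactant) was sprayed either on silt-loam soil right after sowing or on emerged plants at the 1–4-leaf stage, 2–18 cm tall.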

soybean = assay: Test F postemergence; type: in vivo, Glycine max; details: scale 0 to 100
Source text: as §1, §2

mustard, black = assay: Test E preemergence; type: in vivo, Brassica nigra; details: 21 days, scale 0 to 100
Source text: as §3, §4

common ragweed = assay: Test F postemergence; type: in vivo, Ambrosia elation; details: scale 0 to 100
Source text: as §1, §2

ryegrass, Italian = assay: Test E preemergence; type: in vivo, Lolium multiflorum; details: 21 days, scale 0 to 100
Source text: as §3, §4

barnyardgrass = assay: Test E preemergence; type: in vivo, Echinochloa crus-galli; details: 21 days, scale 0 to 100
Source text: as §3, §4

ragweed = assay: Test E preemergence; type: in vivo, Ambrosia elation; details: 21 days, scale 0 to 100
Source text: as §3, §4

morningglory = assay: Test E preemergence; type: in vivo, Ipomoea lacunosa; details: 21 days, scale 0 to 100
Source text: as §3, §4

kochia = assay: Test E preemergence; type: in vivo, Kochia scoparia; details: 21 days, scale 0 to 100
Source text: as §3, §4

signalgrass = assay: Test E preemergence; type: in vivo, Brachiaria platyphylla; details: 21 days, scale 0 to 100
Source text: as §3, §4

bermudagrass = assay: Test E preemergence; type: in vivo, Cynodon dactylon; details: 21 days, scale 0 to 100
Source text: as §3, §4

Which results are given for `CCc1cc(C(=O)NCC(F)(F)F)nn1Cc1ccnc(C(F)(F)F)c1` [Compound 78, 5-ethyl-N-(2,2,2-trifluoroethyl)-1-[[(2-trifluoromethyl)-4-pyridinyl]methyl]-1H-pyrazole-3-carboxamide]?
Plant response rating, Fall Panicum (fall panicum; Postemergence, 31 g ai/ha): 10; Plant response rating, Fall Panicum (fall panicum; Postemergence, 125 g ai/ha): 50; Plant response rating, Fall Panicum (fall panicum; Postemergence, 250 g ai/ha): 90; Plant response rating, Fall Panicum (fall panicum; postemergence, 62 g ai/ha): 20; Plant response rating, Fall Panicum (fall panicum; postemergence, 500 g ai/ha): 95; Plant response rating, Dayflower, VA (dayflower, VA; 16 g ai/ha): 85; Plant response rating, Dayflower, VA (dayflower, VA; 31 g ai/ha): 100; Plant response rating, Dayflower, VA (dayflower, VA; 62 g ai/ha): 100; Plant response rating, Dayflower, VA (dayflower, VA; 125 g ai/ha): 100; Plant response rating, Dayflower, VA (dayflower, VA; 250 g ai/ha): 100; Plant response rating, Pigweed, Palmer (pigweed, palmer; Postemergence, 31 g ai/ha): 50; Plant response rating, Pigweed, Palmer (pigweed, palmer; Postemergence, 125 g ai/ha): 70; Plant response rating, Pigweed, Palmer (pigweed, palmer; Postemergence, 250 g ai/ha): 90; Plant response rating, Pigweed, Palmer (pigweed, palmer; postemergence, 62 g ai/ha): 60; Plant response rating, Pigweed, Palmer (pigweed, palmer; postemergence, 500 g ai/ha): 98; Plant response rating, Soybean (soybean; Postemergence, 31 g ai/ha): 75; Plant response rating, Soybean (soybean; Postemergence, 250 g ai/ha): 95; Plant response rating, Soybean (soybean; postemergence, 62 g ai/ha): 80; Plant response rating, Soybean (soybean; postemergence, 500 g ai/ha): 100; Plant response rating, Mustard, Black (mustard, black; 16 g ai/ha): 70; Plant response rating, Mustard, Black (mustard, black; 31 g ai/ha): 100; Plant response rating, Mustard, Black (mustard, black; 62 g ai/ha): 100; Plant response rating, Mustard, Black (mustard, black; 125 g ai/ha): 100; Plant response rating, Mustard, Black (mustard, black; 250 g ai/ha): 100; Plant response rating, Common Ragweed (common ragweed; Postemergence, 31 g ai/ha): 65; Plant response rating, Common Ragweed (common ragweed; Postemergence, 125 g ai/ha): 70; Plant response rating, Common Ragweed (common ragweed; Postemergence, 250 g ai/ha): 80; Plant response rating, Common Ragweed (common ragweed; postemergence, 62 g ai/ha): 50; Plant response rating, Common Ragweed (common ragweed; postemergence, 500 g ai/ha): 95; Plant response rating, Ryegrass, Italian (ryegrass, Italian; 16 g ai/ha): 10; Plant response rating, Ryegrass, Italian (ryegrass, Italian; 31 g ai/ha): 50; Plant response rating, Ryegrass, Italian (ryegrass, Italian; 62 g ai/ha): 90; Plant response rating, Ryegrass, Italian (ryegrass, Italian; 125 g ai/ha): 100; Plant response rating, Ryegrass, Italian (ryegrass, Italian; 250 g ai/ha): 100; Plant response rating, Barnyardgrass (barnyardgrass; 16 g ai/ha): 35; Plant response rating, Barnyardgrass (barnyardgrass; 31 g ai/ha): 95; Plant response rating, Barnyardgrass (barnyardgrass; 62 g ai/ha): 100; Plant response rating, Barnyardgrass (barnyardgrass; 125 g ai/ha): 100; Plant response rating, Barnyardgrass (barnyardgrass; 250 g ai/ha): 100; Plant response rating, Ragweed (ragweed; 16 g ai/ha): 75; Plant response rating, Ragweed (ragweed; 31 g ai/ha): 100; Plant response rating, Ragweed (ragweed; 62 g ai/ha): 100; Plant response rating, Ragweed (ragweed; 125 g ai/ha): 100; Plant response rating, Ragweed (ragweed; 250 g ai/ha): 100; Plant response rating, Morningglory (morningglory; 16 g ai/ha): 50; Plant response rating, Morningglory (morningglory; 31 g ai/ha): 70; Plant response rating, Morningglory (morningglory; 62 g ai/ha): 90; Plant response rating, Morningglory (morningglory; 125 g ai/ha): 100; Plant response rating, Morningglory (morningglory; 250 g ai/ha): 100; Plant response rating, Kochia (kochia; 16 g ai/ha): 100; Plant response rating, Kochia (kochia; 31 g ai/ha): 100; Plant response rating, Kochia (kochia; 62 g ai/ha): 100; Plant response rating, Kochia (kochia; 125 g ai/ha): 100; Plant response rating, Kochia (kochia; 250 g ai/ha): 100; Plant response rating, Signalgrass (signalgrass; 16 g ai/ha): 70; Plant response rating, Signalgrass (signalgrass; 31 g ai/ha): 100; Plant response rating, Signalgrass (signalgrass; 62 g ai/ha): 100; Plant response rating, Signalgrass (signalgrass; 125 g ai/ha): 100; Plant response rating, Signalgrass (signalgrass; 250 g ai/ha): 100; Plant response rating, Bermudagrass (bermudagrass; 16 g ai/ha): 70; Plant response rating, Bermudagrass (bermudagrass; 31 g ai/ha): 85; Plant response rating, Bermudagrass (bermudagrass; 62 g ai/ha): 100; Plant response rating, Bermudagrass (bermudagrass; 125 g ai/ha): 100; Plant response rating, Bermudagrass (bermudagrass; 250 g ai/ha): 100
